Molecular target: FGF-2 (Homo sapiens, UniProt P09038)
Experiment: in vitro cellular test of FGF-2 activation
Type: cell-based

FGF-2, sequence (P09038 143-288): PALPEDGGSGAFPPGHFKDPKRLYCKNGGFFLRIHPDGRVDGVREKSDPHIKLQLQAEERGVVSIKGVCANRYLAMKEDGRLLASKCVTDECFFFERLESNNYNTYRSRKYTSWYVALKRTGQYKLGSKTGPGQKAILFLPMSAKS

Substance: Sodium [methyl(sodium 2-O-sodium sulfonato-α-L-idopyranosyluronate)-(1→4)-(2-deoxy-6-O-sodium sulfonato-2-sodium (sulfonatoamino)-α-D-glucopyranosyl)-(1→4)-[(sodium 2-O-sodium sulfonato-α-L-idopyranosyluronate)-(1→4)-(2-deoxy-6-O-sodium sulfonato-2-sodium sulfonatoamino)-α-D-glucopyranos)-(1→4)]2-2-O-sodium sulfonato-α-L-idopyranoside]uronate [Compound 3]
- FGF-2 activation compared with the hexasaccharide analogue (C. Tabeur et al.): better FGF-2 activators than the hexasaccharide analogue thereof
